Laboratory results as given in ChEMBL document CHEMBL1629476, “Synthesis and biological evaluation of aminoketones” (2010).
In brackets after ≈: the same amount, converted by molar mass.

Columns and labels:
Format in all cases: functional
Pseudomonas aeruginosa = test: Antibacterial activity against Pseudomonas aeruginosa after 16 hrs by serial dilution method
Staphylococcus aureus = test: Antibacterial activity against Staphylococcus aureus after 16 hrs by serial dilution method
Bacillus subtilis = test: Antibacterial activity against Bacillus subtilis after 16 hrs by serial dilution method
Escherichia coli = test: Antibacterial activity against Escherichia coli after 16 hrs by serial dilution method

Row | MIC (Pseudomonas aeruginosa) [µg/mL] | MIC (Staphylococcus aureus) [µg/mL] | MIC (Bacillus subtilis) [µg/mL] | MIC (Escherichia coli) [µg/mL] | Structure (SMILES)
1 | 1.61 (≈ 4.44 µM) | 3.12 (≈ 8.6 µM) | 1.61 (≈ 4.44 µM) | 1.61 (≈ 4.44 µM) | COc1ccc(F)c(C(Nc2ccc(F)cc2F)C2CCCCC2=O)c1 (stereo not drawn)
2 | 6.25 (≈ 18.6 µM) | 6.25 (≈ 18.6 µM) | 6.25 (≈ 18.6 µM) | 12.5 (≈ 37.3 µM) | CC(C)(C)c1ccc(NC(c2ccccc2)C2CCCCC2=O)cc1 (stereo not drawn)
3 | 1.61 (≈ 4.84 µM) | 1.61 (≈ 4.84 µM) | 1.61 (≈ 4.84 µM) | 1.61 (≈ 4.84 µM) | O=C1CCCCC1C(Nc1ccc(F)cc1F)c1ccc(F)cc1 (stereo not drawn)
4 | 1.61 (≈ 4.76 µM) | 3.12 (≈ 9.22 µM) | 1.61 (≈ 4.76 µM) | 1.61 (≈ 4.76 µM) | N#Cc1ccc(NC(c2ccccc2Cl)C2CCCCC2=O)cc1 (stereo not drawn)
5 | 1.61 (≈ 4.84 µM) | 3.12 (≈ 9.37 µM) | 1.61 (≈ 4.84 µM) | 1.61 (≈ 4.84 µM) | O=C1CCCCC1C(Nc1ccc(F)c(F)c1)c1ccccc1F (stereo not drawn)
6 | 6.25 (≈ 17.7 µM) | 6.25 (≈ 17.7 µM) | 3.12 (≈ 8.84 µM) | 3.12 (≈ 8.84 µM) | C=CCOc1ccccc1C(Nc1cccc(F)c1)C1CCCCC1=O (stereo not drawn)
7 | 1.61 (≈ 4.75 µM) | 1.61 (≈ 4.75 µM) | 1.61 (≈ 4.75 µM) | 1.61 (≈ 4.75 µM) | COc1cccc(NC(c2cccc(C)c2O)C2CCCCC2=O)c1 (stereo not drawn)
8 | 12.5 (≈ 34.6 µM) | 12.5 (≈ 34.6 µM) | 12.5 (≈ 34.6 µM) | 12.5 (≈ 34.6 µM) | CCc1ccc(C(Nc2cc(F)c(F)c(F)c2)C2CCCCC2=O)cc1 (stereo not drawn)
9 | 25 (≈ 68.2 µM) | 6.25 (≈ 17.1 µM) | 6.25 (≈ 17.1 µM) | 6.25 (≈ 17.1 µM) | CCc1ccc(C(Nc2ccc(C)c([N+](=O)[O-])c2)C2CCCCC2=O)cc1 (stereo not drawn)
10 | 1.61 (≈ 4.37 µM) | 3.12 (≈ 8.46 µM) | 3.12 (≈ 8.46 µM) | 1.61 (≈ 4.37 µM) | O=C1CCCCC1C(Nc1cccc2ccccc12)c1cc2ccccc2o1 (stereo not drawn)
11 | 1.61 (≈ 4.84 µM) | 3.12 (≈ 9.37 µM) | 1.61 (≈ 4.84 µM) | 1.61 (≈ 4.84 µM) | Cc1cc2cc(NC(c3ccncc3)C3CCCCC3=O)ccc2[nH]1 (stereo not drawn)

Row | Structure (SMILES) | MIC (Pseudomonas aeruginosa) [µg/mL] | MIC (Staphylococcus aureus) [µg/mL] | MIC (Bacillus subtilis) [µg/mL] | MIC (Escherichia coli) [µg/mL]
12 | CO/N=C(\C(=O)N[C@@H]1C(=O)N2C(C(=O)O)=C(CSc3nc(=O)c(O)nn3C)CS[C@H]12)c1csc(N)n1 [CEFTRIAXONE] | 1.61 (≈ 2.91 µM) | 3.12 (≈ 5.63 µM) | 1.61 (≈ 2.91 µM) | 1.61 (≈ 2.91 µM)
